This is an account of results in paper PMC4827351 (Chemical Science, 2015).

For this experiment, the system named is E. coli ATCC 25922. The experiment can be described thus: Cuvette-based bacterial agglutination assay. In kind it is cell-based, Escherichia coli. The conditions noted are these: n = 3. An excerpt:
We previously reported a simple cuvette-based in vitro agglutination assay that enables time-dependent monitoring of agglutination of viable bacteria by HD6.[15] We employed this assay to further characterize the trypsin-dependent activity of proHD6 on cultured bacterial cells (Fig. 4a and b). […] In these assays, we defined the “supernatant” as the culture solution in the top portion of the cuvette and the “re-suspension” as the mixture that results from agitating the entire culture after the 6 h incubation period.[15] We observed an ≈1.5-fold log reduction in CFU mL^–1 for the “supernatant” from cultures treated with combination of trypsin and proHD6 relative to the no-peptide control (Fig. 4c). Following “re-suspension”, the total CFU mL^–1 in the cuvette was indistinguishable from that of either the untreated control culture or the bacterial culture treated with proHD6.
Fig. 4 Bacterial agglutination assays for native and cleaved proHD6. (a) Agglutination of E. coli ATCC 25922 and L. monocytogenes ATCC 19115 in 50% MHB treated with proHD6 in the absence and presence of 0.4 μM trypsin or HD6 (control). (b) Representative images of cuvettes containing E. coli ATCC 25922 or L. monocytogenes ATCC 19115 after incubation with 20 μM peptides for 2 h at room temperature. (c) Plots of colony forming units (CFU mL^–1) of E. coli ATCC 25922 and L. monocytogenes ATCC 19115 after treatment with 20 μM peptides for 6 h (mean ± SDM, n = 3). Supernatant is defined as the clarified medium solution in the top portion of the culture and resuspension is defined as the mixture after thoroughly agitating the heterogeneous solution.
Stock solutions (50 μL) of HD6 and proHD6 (0, 50, 100, and 200 μM; 10× concentrations) were prepared in sterile Milli-Q water. If trypsin was required, aliquots of a 1 mg mL^–1 stock solution of TPCK-treated trypsin (Worthington) prepared in sterile Milli-Q water were added to solutions of proHD6 to afford a final trypsin concentration of 0.01 mg mL^–1. The assays were then conducted following the reported procedure.[15] […]

On to “EPLQAEDDPLQAKAYEADAQEQRGANDQDFAVSFAEDASSSLRALGSTRAFTCHCRRSCYSTEYSYGTCTVMGINHRFCCL (disulfide (positions not given here)) [proHD6, 81-residue propeptide of human α-defensin 6, recombinant, from His6-SUMO-proHD6]”, for which the “total CFU mL^-1 after re-suspension versus untreated control culture or culture treated with proHD6” value (20 µM proHD6 + trypsin, 6 h, entire culture agitated) is “indistinguishable”. Further, the “agglutination of bacterial culture in cuvette, with trypsin” value (proHD6 + 0.4 µM (0.01 mg/mL) trypsin, 10^8 CFU mL^-1, 50% MHB, room temperature) was “bacterial agglutination and sedimentation occurred”. For the same sequence, the “agglutination of bacterial culture in cuvette” value (proHD6 up to 20 µM, no trypsin, 10^8 CFU mL^-1, 50% MHB, 6 h, room temperature) is “remained homogeneous”.
